Assay results published in patent publication US7943160B2, “Pest control methods” (priority 2002, dated 2011).
Several values for one entry are separate records, joined by “and”; a condition that tells them apart may be missing. Identical values can stand only once.

Legend:
Format in all cases: in vivo
[1] = tested on: larval ticks (I. scapularis); test: Systemic efficacy of fipronil diet on larval ticks fed on laboratory mice; details: diet compositions containing 960-ppm fipronil (so in the source)
[2] = tested on: larval ticks (I. scapularis); test: as above; details: for Replete Ticks: individual mice; for Replete Ticks, Total: 8 mice
Procedure: To investigate the systemic efficacy of fipronil against ticks, diet compositions formulated with the compound were presented to treatment mice while an EPA challenge diet, without insecticide, was presented to control mice. Diet compositions were presented for 48 hours. Water was supplied ad libitum. Feed consumption was monitored throughout the study. After 48-hours, mice were removed from their cages and 50-70 I. scapularis were applied to each mouse by first placing mice in 50 ml centrifuge tubes will multiple holes in them. Holes were created by melting the centrifuge tube with a soldering iron. Ticks were then applied and mice remained restrained in the tubes for 2-5 hours, thereby allowing the ticks to attach. The mice were placed in cages suspended over water in a humidity chamber maintaining humidity between 60-80%. Water underneath the suspended mice was checked daily for the presence of ticks falling from the mice. The number of fed and unfed ticks was recorded. Water pans were checked for 6 days. The ticks were kept at 21° C., 90% humidity and a light cycle of 16L:8D. Pans were checked for 5 days. The end-point for the insecticides were larval tick mortality after exposure.
Study 1a: A Diet Composition Containing 970-ppm Fipronil Diet was Formulated Using Inert Ingredients of Rolled Oats, Corn Meal, Powdered Sugar and Corn Oil.
The diet was exposed to laboratory mice for 48 hours.
Study 2a: A Diet Composition Containing 485-ppm Fipronil Diet was Formulated and Exposed to Laboratory Mice for 48 Hours.
The diet was exposed to laboratory mice for 48 hours. Ticks were applied directly to the mice.

X. cheopis fleas = test: Flea mortality on rats fed imidacloprid or imidacloprid/piperonyl butoxide diet
Procedure: For example, an investigation was conducted into the ability of piperonyl butoxide to potentiate the insecticidal activity of orally administered imidacloprid to rats challenged with fleas. Piperonyl butoxide compound is known to produce significant decreases in hepatic cytochrome P450 in rats (Dalvi and Dalvi 1991). Because imidacloprid is also metabolized by cytochrome P450 in rats (Schulz-Jander et al. 2002), decreasing the metabolism rate of imidacloprid in the rat (i.e., the rate at which imidacloprid is metabolized by the rat) may increase the availability and therefore the toxicity of the compound to fleas as well as possibly increasing the residual action of the insecticide. Four rats were evaluated for each test diet. Rats were individually housed in individual cages. Rats were housed in cages measuring 24×40.5×18 cm (L×W×H). The floor area measured 972 cm^2. Tap water in glass bottles with stainless steel sipper tubes was available ad libitum. Cages were suspended from shelves on two, single-sided racks. Rats were placed in cages identified by a consecutive number 1-8 and a descriptor for their sex (e.g. M or F). PBO Technical (Prentox®) was received from Prentiss Inc. (Floral Park, N.Y., Lot# 41428). Diet composition was made using the following recipes:
The imidacloprid (Imi) diet composition was formulated at 167 mg/kg imidacloprid. The imidacloprid/PBO diet composition was formulated at 169 mg/kg imidacloprid and 1% PBO. Diets were mixed and presented no-choice to rats for 24 hours. Flea feeding capsules, containing fleas (X. cheopis) were secured to the rats and remained attached for 5 hrs. After exposure, the flea feeders were removed and placed in the humidity chamber until the following morning. Fleas were then evaluated for mortality and morbidity (Table 5).

German cockroaches = test: Cockroach mortality on rodent challenge diet fortified with imidacloprid; details: EPA challenge diet fortified with 250 mg/kg imidacloprid
Procedure: To determine if rodent diet compositions containing imidacloprid would be effective at controlling cockroaches, German cockroaches were received from a commercial supplier and placed in a sealed container. Rodent “challenge diet”, the EPA standard rodent diet formulation, fortified with 250 mg/kg imidacloprid was placed in the cage. Water was supplied by a wet cotton wick. The mortality of cockroaches consuming diet was 100%.

| SMILES | preventing ticks from feeding to repletion [1] | Replete Ticks ([2]; 485 ppm fipronil diet 48 hours, 70 ticks applied per mouse) | Replete Ticks, Total ([2]; 485 ppm fipronil diet, 70 ticks each, control total 162) | Replete Ticks ([2]; 970-ppm fipronil diet 48 hours, 50 ticks applied per mouse) | Replete Ticks, Total ([2]; 970-ppm fipronil diet, 50 ticks each, control total 12) | prevents ticks from feeding to repletion ([2]; fipronil formulated at 485 mg/kg in diet) | Total fleas dead/recovered (X. cheopis fleas; 4 rats per diet, pooled) | Total Percent Mortality (%) (X. cheopis fleas; 4 rats per diet, Imi 167 mg/kg, Imi/pip 169 mg/kg imidacloprid and 1% PBO) | # Fleas Dead/# Fleas Recovered (X. cheopis fleas; individual rats, diet 24 hours, flea capsules attached 5 hrs, Imi 167 mg/kg, Imi/pip 169 mg/kg imidacloprid and 1% PBO) | mortality of cockroaches consuming diet (German cockroaches) |
| --- | --- | --- | --- | --- | --- | --- | --- | --- | --- | --- |
| N#Cc1nn(-c2c(Cl)cc(C(F)(F)F)cc2Cl)c(N)c1[S+]([O-])C(F)(F)F (stereo not shown) [Fipronil, fipronil] | effective at preventing ticks from feeding to repletion | 0 | 0 | 0 | 0 | prevents ticks from feeding to repletion |  |  |  |  |
| O=[N+]([O-])NC1=NCCN1Cc1ccc(Cl)nc1 [Imidacloprid, imidacloprid] |  |  |  |  |  |  | (71/85) | 83.5% | 20/24 and 18/18 and 15/15 and 18/28 | 100% |
